Assay results published in ChEMBL document CHEMBL1201862, “PubChem BioAssay data set” (2004).
Activity calls are given as the source filed them.

Key:
[1] = biological target: T1, Heat shock factor protein 1 (Mus musculus, UniProt P38532); experiment: inhibition of MG132-induced HSE-luciferase signal, confirmation, cell-based, NIH3T3, luminescence, dose retest (AID 2382); format: functional;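 further: NIH3T3 fibroblasts with HSF1-driven luciferase reporter stressed by proteasome inhibitor MG132; luminescence from HSF1-driven luciferase expression after 8 hours of MG132 stress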
T1 sequence (P38532 whole entry): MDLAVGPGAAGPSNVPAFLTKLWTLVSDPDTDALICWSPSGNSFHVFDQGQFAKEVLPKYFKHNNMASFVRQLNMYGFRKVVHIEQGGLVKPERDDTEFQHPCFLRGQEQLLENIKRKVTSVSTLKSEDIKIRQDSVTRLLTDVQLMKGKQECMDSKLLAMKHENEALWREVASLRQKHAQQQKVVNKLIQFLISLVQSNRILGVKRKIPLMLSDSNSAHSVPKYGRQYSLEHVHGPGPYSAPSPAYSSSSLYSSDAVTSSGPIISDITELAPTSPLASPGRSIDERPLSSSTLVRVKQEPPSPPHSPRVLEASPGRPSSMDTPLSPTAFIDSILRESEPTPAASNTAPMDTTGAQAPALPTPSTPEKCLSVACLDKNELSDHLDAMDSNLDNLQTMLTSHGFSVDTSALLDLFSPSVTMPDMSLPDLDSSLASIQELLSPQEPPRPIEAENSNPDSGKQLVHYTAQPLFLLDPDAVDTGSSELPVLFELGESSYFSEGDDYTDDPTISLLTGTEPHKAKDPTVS

[2] = cells; settings: HEK293
[3] = growth suppression of beta-catenin-knockout colon cells, dose response, cell-based, HCT116, human colon tumor (AID 1045); format: functional;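 further: HCT116 colon tumor cells with beta catenin knocked out; cells exposed to compound for 60 hours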
[4] = growth suppression of PTEN-null colon cells, dose response, cell-based, HCT116 PTEN knockout (AID 1047); format: functional;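 further: HCT116 colon tumor cells with PTEN knocked out; cells exposed to compound for 60 hours before readout; potency for loss of cell viability measured by luminescence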
[5] = cytotoxicity in HEK-293T cells, dose response, cytotoxicity control for BCR NF-kB inhibitor project, luminescence, B-cell screen hits (AID 489021); format: functional, cell-based;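 further: HEK-293T cells carrying an NF-kB luciferase reporter; cells exposed to compound for about 14 hours before viability readout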
[6] = biological target: COUP transcription factor 2 (Homo sapiens, UniProt P24468); experiment: Luminescence-based cell-based high throughput dose response assay to identify inhibitors of COUP-TFII (NR2F2).; format: functional;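 further: HEK293 cells transiently cotransfected with COUP-TFII expression vector and reporter; luciferase reporter luminescence driven by COUP-TFII from the pX2-168 reporter plasmid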
Chain of COUP transcription factor 2 (P24468 whole entry): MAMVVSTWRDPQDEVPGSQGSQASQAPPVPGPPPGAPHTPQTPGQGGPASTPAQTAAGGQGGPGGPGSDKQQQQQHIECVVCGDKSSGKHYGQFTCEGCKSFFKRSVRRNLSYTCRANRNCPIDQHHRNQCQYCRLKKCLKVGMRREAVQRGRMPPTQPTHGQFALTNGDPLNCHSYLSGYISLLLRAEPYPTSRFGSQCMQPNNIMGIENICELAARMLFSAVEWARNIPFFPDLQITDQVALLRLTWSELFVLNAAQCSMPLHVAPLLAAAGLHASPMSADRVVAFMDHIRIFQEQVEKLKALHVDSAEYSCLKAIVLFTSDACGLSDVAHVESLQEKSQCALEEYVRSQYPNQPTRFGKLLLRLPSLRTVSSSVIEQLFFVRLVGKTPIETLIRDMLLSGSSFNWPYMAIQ

[7] = biological target: 1-phosphatidylinositol 4,5-bisphosphate phosphodiesterase beta-3 (Homo sapiens, UniProt Q01970); experiment: Fluorescence-based biochemical high throughput dose response assay to identify inhibitors of phospholipase C isozymes (PLC-B3).
Chain of 1-phosphatidylinositol 4,5-bisphosphate phosphodiesterase beta-3 (Q01970 whole entry): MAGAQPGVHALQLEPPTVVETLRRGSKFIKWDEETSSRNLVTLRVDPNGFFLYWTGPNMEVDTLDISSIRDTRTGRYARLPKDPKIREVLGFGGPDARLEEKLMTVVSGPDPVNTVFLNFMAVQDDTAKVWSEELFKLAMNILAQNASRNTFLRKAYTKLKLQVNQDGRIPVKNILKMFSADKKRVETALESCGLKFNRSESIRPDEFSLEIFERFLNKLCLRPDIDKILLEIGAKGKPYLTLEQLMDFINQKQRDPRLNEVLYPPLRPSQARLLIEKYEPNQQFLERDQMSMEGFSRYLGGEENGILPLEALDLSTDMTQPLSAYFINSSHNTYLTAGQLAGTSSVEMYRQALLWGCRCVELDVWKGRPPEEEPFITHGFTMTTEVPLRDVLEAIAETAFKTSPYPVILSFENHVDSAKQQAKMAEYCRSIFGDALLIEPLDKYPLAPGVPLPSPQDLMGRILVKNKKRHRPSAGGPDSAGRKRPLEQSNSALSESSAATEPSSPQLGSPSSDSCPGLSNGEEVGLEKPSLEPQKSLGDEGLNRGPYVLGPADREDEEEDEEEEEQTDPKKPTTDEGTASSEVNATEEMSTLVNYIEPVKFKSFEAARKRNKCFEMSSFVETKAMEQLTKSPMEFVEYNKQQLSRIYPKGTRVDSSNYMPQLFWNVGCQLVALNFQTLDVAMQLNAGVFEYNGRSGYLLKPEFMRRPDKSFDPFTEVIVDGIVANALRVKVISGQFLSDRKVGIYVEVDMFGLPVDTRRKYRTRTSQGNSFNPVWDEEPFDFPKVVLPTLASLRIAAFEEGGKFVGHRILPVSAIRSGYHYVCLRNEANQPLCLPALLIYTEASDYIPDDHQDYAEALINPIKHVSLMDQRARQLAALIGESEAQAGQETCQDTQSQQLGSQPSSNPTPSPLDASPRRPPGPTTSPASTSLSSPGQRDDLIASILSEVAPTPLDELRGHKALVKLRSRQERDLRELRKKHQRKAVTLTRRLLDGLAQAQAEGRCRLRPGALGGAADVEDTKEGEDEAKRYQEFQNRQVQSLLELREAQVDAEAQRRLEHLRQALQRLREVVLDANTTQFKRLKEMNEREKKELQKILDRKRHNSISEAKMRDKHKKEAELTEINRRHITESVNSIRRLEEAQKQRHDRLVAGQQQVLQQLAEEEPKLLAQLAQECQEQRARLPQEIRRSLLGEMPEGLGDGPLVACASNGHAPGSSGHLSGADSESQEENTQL

[8] = biological target: 1-phosphatidylinositol 4,5-bisphosphate phosphodiesterase gamma-1 (Homo sapiens, UniProt P19174); experiment: Counterscreen for inhibitors of phospholipase C isozymes (PLC-B3): Fluorescence-based biochemical high throughput dose response assay to identify inhibitors of phospholipase C isozymes (PLC-gamma1).
[9] = ADAM10 inhibitors, peptide cleavage, dose response, biochemical, QFRET (AID 743254);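 further: ADAM10 enzyme with the DM2 quenched FRET peptide as substrate; EDANS fluorescence gain as the protease cuts the substrate; inhibitor potency against ADAM10 proteolytic activity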
[10] = biological target: Disintegrin and metalloproteinase domain-containing protein 17 (Homo sapiens, UniProt P78536); experiment: ADAM17 protease inhibitors, dose response, counter-screen for ADAM10 exosite inhibitor project, biochemical, quenched FRET substrate (AID 743253)
Chain of Disintegrin and metalloproteinase domain-containing protein 17 (P78536 whole entry, the tested form may be a part): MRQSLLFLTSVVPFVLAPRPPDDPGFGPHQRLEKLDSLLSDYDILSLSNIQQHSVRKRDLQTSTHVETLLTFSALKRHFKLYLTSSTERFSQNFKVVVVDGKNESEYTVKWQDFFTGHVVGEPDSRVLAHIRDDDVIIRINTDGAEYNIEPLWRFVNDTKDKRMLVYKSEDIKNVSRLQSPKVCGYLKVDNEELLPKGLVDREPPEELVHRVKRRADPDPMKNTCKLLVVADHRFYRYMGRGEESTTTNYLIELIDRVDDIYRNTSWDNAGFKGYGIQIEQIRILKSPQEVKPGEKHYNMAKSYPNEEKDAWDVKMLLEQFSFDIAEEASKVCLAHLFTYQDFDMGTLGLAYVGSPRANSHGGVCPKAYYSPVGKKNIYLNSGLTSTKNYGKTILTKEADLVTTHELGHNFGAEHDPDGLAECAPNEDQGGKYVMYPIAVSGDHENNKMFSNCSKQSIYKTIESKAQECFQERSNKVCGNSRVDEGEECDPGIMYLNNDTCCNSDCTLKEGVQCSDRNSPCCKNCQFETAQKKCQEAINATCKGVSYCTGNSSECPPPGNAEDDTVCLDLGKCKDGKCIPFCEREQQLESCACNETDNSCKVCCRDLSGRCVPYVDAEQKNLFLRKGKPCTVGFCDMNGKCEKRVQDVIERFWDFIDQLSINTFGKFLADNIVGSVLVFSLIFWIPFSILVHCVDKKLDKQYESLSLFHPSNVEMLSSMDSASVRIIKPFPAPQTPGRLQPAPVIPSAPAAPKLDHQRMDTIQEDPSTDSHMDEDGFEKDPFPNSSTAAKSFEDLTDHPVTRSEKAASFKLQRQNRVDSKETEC

[11] = biological target: T2, Calpain-2 catalytic subunit (Sus scrofa, UniProt P43367); experiment: pig calpain II inhibitor potency, dose response, biochemical, fluorogenic peptide substrate (AID 1420); format: functional
T2 sequence (P43367 whole entry): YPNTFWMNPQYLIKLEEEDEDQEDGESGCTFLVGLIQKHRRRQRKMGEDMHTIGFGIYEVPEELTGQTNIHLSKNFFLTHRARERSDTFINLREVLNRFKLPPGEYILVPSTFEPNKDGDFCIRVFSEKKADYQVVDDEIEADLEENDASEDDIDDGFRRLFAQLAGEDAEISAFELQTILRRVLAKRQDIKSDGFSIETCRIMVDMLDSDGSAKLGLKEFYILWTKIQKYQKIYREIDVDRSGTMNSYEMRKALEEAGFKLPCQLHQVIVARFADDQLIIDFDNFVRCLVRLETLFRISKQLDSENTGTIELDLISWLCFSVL

[12] = HEK293T cytotoxicity, dose response, cytotoxicity control for miR-122 modulator project, cell-based, inhibitor set, cherry-pick, set 2 (AID 720697); format: functional
[13] = HEK293T cytotoxicity, dose response, cytotoxicity control for miR-122 modulator project, cell-based, activator set, cherry-pick (AID 720690); format: functional;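 further: HEK293T human cells scored for general mammalian cytotoxicity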
[14] = miR-122 activators in hepatoma reporter cells, dose response, cell-based, Huh7 psiCHECK-miR122, Renilla luciferase, cherry-picked (AID 651956); format: functional;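 further: huh7 hepatoma cells stably carrying a psiCHECK-2 miR-122 sensor plasmid; renilla luciferase signal reporting endogenous miR-122 activity after 48 h compound exposure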
[15] = biological target: Endoplasmic reticulum aminopeptidase 1 (Homo sapiens, UniProt Q9NZ08); experiment: ERAP1 aminopeptidase inhibitors, dose response, biochemical, cherry-pick, set 2, plate reader (AID 743314)
Chain of Endoplasmic reticulum aminopeptidase 1 (Q9NZ08 whole entry): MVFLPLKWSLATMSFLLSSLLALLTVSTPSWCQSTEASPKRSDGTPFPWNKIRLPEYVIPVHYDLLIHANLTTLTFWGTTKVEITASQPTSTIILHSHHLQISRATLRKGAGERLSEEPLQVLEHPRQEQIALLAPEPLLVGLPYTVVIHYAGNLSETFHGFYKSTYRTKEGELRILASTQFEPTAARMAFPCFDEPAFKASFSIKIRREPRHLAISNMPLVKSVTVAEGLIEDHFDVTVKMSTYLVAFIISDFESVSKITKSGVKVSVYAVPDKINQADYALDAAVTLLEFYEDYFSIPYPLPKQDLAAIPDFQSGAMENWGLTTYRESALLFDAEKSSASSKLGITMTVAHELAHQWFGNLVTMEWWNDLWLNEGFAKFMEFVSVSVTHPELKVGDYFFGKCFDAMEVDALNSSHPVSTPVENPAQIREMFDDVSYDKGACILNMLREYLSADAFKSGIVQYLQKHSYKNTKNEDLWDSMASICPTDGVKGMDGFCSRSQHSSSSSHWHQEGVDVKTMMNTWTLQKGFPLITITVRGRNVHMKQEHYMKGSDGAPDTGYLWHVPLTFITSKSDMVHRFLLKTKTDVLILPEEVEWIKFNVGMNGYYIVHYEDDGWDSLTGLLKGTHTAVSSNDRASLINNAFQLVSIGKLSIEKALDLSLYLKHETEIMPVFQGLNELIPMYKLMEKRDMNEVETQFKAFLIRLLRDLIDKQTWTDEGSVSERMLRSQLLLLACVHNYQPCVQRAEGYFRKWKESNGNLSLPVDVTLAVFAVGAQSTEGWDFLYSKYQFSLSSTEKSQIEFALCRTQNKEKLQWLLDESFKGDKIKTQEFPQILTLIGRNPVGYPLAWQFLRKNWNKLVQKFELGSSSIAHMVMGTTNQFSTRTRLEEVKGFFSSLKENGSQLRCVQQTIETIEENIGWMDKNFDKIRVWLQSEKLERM

[16] = Late stage counterscreen for inhibitors of Trypanosoma brucei methionyl tRNA synthetase (MetRS): Luminescence-based cell-based high throughput dose response assay to identify compounds that are cytotoxic to Jurkat human T lymphocyte cells.; format: functional
[17] = THP-1 cell cytotoxicity, cytotoxicity control, set 6 (AID 602433); format: functional; settings: Mycobacterium tuberculosis
[18] = Vero cell cytotoxicity, cytotoxicity control for M. tuberculosis inhibitor project, purified and synthesized samples, set 8 (AID 602431); format: functional; settings: Mycobacterium tuberculosis
[19] = HeLa cell cytotoxicity, dose response, cytotoxicity control, 24 h, plate reader, dry powder (AID 686928); format: functional, cell-based
[20] = Artemis endonuclease inhibitor potency, dose response, biochemical, fluorescence intensity (AID 720701); format: functional;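 further: Artemis endonuclease enzyme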
[21] = Luminescence Cell-Based Dose Response HTS to Identify Activators of Luciferase Translation or Activity in H4 […] Cells. [Related pubchem assays: 1829 (Project Summary), 1814 (Primary HTS)]; format: functional
[22] = cytotoxicity in OV-90 ovarian cancer cells, dose response, PAX8 inhibitor project, cell-based, plate reader, dry powder, SA8 (AID 743149); format: functional
[23] = PAX5 activity inhibitors, dose response, selectivity assay for PAX8 inhibitor project, cell-based, plate reader, dry powder samples (AID 743047); format: functional;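 further: HEK293 cells carrying a Pax5 driven CD19 promoter luciferase reporter; potency of inhibitors that lower reporter luminescence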
[24] = cytotoxicity in COV362 ovarian cancer cells, dose response, cytotoxicity control for PAX8 inhibitor project, cell-based, plate reader, dry powder, SA12 (AID 743144); format: functional
[25] = cytotoxicity dependent on PAX8, dose response, cell-based, plate reader, dry powder (AID 743049); format: functional
[26] = PAX2 cell-based inhibition, dose response, selectivity assay for PAX8 inhibitor project, plate reader, dry powder samples (AID 743048); format: functional;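 further: HEK293 cells carrying a WT1 promoter luciferase reporter driven by expressed Pax2; potency is for inhibition of Pax2 driven reporter signal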
[27] = NIH:OVCAR-3 ovarian cancer cell cytotoxicity, dose response, PAX8 inhibitor project, plate reader, dry powder samples (AID 743044); format: functional, cell-based
[28] = cytotoxicity in OVCAR4 cells, dose response, cytotoxicity control for PAX8 inhibitor project, cell-based, plate reader, dry powder, SA11 (AID 743150); format: functional; settings: OVCAR-4
[29] = biological target: Paired box protein Pax-8 (Homo sapiens, UniProt Q06710); experiment: inhibitors of PAX8-driven TPO luciferase reporter, dose response, RMG-I cells, cherry-pick (AID 687027); format: functional, cell-based;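 further: luciferase reporter driven by Pax8 target thyroperoxidase promoter measured by SteadyGlo luminescence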
Chain of Paired box protein Pax-8 (Q06710 whole entry): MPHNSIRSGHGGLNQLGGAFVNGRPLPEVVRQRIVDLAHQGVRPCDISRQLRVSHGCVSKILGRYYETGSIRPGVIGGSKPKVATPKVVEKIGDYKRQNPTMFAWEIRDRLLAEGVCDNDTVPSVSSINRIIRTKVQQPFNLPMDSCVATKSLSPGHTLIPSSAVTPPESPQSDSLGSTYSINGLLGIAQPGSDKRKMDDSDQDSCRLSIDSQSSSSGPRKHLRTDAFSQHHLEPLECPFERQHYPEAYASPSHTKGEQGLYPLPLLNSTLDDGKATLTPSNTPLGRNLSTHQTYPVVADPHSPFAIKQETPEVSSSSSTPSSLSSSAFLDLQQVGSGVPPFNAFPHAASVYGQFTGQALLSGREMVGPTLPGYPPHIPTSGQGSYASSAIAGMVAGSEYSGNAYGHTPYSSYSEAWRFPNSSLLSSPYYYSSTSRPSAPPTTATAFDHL

[30] = cytotoxicity in OVCAR8 ovarian cancer cells, dose response, PAX8 project, cell-based, plate reader, dry powder samples (AID 743197); format: functional; settings: OVCAR-8
[31] = cytotoxicity in COV434 cells, dose response, cytotoxicity control for PAX8 inhibitor project, cell-based, plate reader, dry powder, SA7 (AID 743145); format: functional
[32] = IOSE-T80 ovarian epithelial cell cytotoxicity, dose response, cytotoxicity control for PAX8 inhibitor project, plate reader, dry powder samples (AID 743045); format: functional, cell-based
[33] = A2780 ovarian cancer cell cytotoxicity, dose response, cytotoxicity control, plate reader, dry powder samples (AID 743046); format: functional, cell-based
[34] = IGROV1 ovarian cancer cell cytotoxicity, dose response, PAX8 inhibitor project, plate reader, dry powder samples (AID 743043); format: functional, cell-based; settings: IGROV-1
[35] = growth inhibition of intracellular T. cruzi, dose response, cell-based, plate reader, dry powder samples (AID 651845); format: functional
[36] = T. cruzi growth inhibition in host cells, dose response, cell-based, plate reader, dry powder, set 2 (AID 652275); format: functional
[37] = T. cruzi intracellular amastigote growth inhibition, dose response, imaging, CA-I/72 strain, bovine embryo skeletal muscle, dry powder (AID 651885); format: functional, cell-based
[38] = MITF: Counter assay: A375 proliferation Measured in Cell-Based System Using Plate Reader - 2084-03_Inhibitor_Dose_DryPowder_Activity_Set8.; format: functional; settings: A-375
[39] = TRPM1 promoter luciferase reporter signal decrease, dose response, MITF inhibitor project, cell-based, SK-MEL-5, dry powder, set 8 (AID 624430); format: functional
[40] = MITF Orthogonal Assay: SK-MEL-5 CTG Assay Measured in Cell-Based System Using Plate Reader - 2084-02_Inhibitor_Dose_DryPowder_Activity_Set7.; format: functional
[41] = Late stage assay provider results from the probe development effort to identify selective inhibitors of heat shock protein 90 (HSP90): Absorbance-based cell proliferation assay in SKBR3 cells.; format: functional; settings: SK-BR-3
[42] = Late stage assay provider results from the probe development effort to identify selective inhibitors of heat shock protein 90 (HSP90): Absorbance-based cell proliferation assay in MCF7 cells.; format: functional
[43] = Counterscreen for […] of the human trace amine associated receptor 1 (TAAR1): Fluorescence-based cell-based high throughput dose response assay to identify nonselective Ga16 agonists.; format: functional
[44] = biological target: T3, Trace amine-associated receptor 1 (Homo sapiens, UniProt Q96RJ0); experiment: Counterscreen for antagonists of the human trace amine associated receptor 1 (hTAAR1): Fluorescence-based cell-based high throughput dose response assay to identify TAAR1 Agonists.; format: functional
T3 sequence (Q96RJ0 whole entry): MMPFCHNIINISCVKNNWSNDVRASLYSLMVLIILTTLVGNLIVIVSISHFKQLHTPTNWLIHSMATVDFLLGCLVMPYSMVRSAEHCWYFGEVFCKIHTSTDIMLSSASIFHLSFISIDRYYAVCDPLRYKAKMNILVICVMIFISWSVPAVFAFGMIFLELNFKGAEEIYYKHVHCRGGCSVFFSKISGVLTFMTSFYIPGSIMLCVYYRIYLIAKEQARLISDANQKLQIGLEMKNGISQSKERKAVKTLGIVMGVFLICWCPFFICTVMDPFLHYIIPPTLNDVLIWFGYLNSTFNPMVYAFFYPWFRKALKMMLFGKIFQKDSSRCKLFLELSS

[45] = biological target: T3, Trace amine-associated receptor 1; experiment: Fluorescence-based cell-based high throughput dose response assay to identify antagonists of the human trace amine associated receptor 1 (TAAR1).; format: functional
[46] = Counterscreen for antagonists of the human trace amine associated receptor 1 (hTAAR1): Fluorescence-based cell-based high throughput dose response assay to identify nonselective Ga16 antagonists.; format: functional

## Cc1cc(-c2ccccc2)c2ccc(NC(=O)C(C)(C)C)nc2n1
[1]
  EC50: > 195 µM (not active)
[2]
  AC50: > 52 µM (inactive)

## CN(CC1CCCO1)S(=O)(=O)c1ccc(C(=O)Nc2nc3cc4c(cc3s2)OCO4)cc1 (centres undefined)
[3]
  EC50: 6.11 µM (active)
[4]
  EC50: 9.25 µM (active)
[5]
  IC50: > 80 µM (inactive)
[6]
  IC50: 2.68 µM (active)

## CCn1c(=S)sc2c(=O)n(CC(=O)Nc3cccc(Cl)c3)c(C)nc21
[7]
  IC50: > 122 µM (inactive)
[8]
  IC50: > 122 µM (inactive)

## O=C(COC(=O)CCCSc1nc2ccccc2[nH]1)Nc1ccc(Oc2ccccc2)cc1
[9]
  IC50: 8.39 µM (active)
[10]
  IC50: > 69.5 µM (inactive)
[11]
  IC50: 7.16 µM (not active)

## CCOC(=O)N1CCC(NC(=O)c2ccc3c(c2)sc2nc(-c4ccccc4)cn23)CC1
[12]
  AC50: 13.6 µM (active)
[13]
  AC50: 12.3 µM (active)
[14]
  AC50: 1.26 µM (active)

## Cc1cc(N(C)Cc2ccccc2)nc2cc(O)ccc12
[15]
  AC50: 11.3 µM (active)

## O=C(CN1CCSC1=NCc1ccccc1)c1ccc(Cl)c(Cl)c1
[16]
  IC50: 83.2 µM (inactive)

## O=C(CSc1nc2ccccc2c(=O)[nH]1)NC1CCCCC1
[17]
  CC50: > 100 µM (inconclusive)
[18]
  CC50: > 100 µM (inconclusive)
[19]
  AC50: > 160 µM (inactive)

## Nc1ccc2[nH]c(-c3ccccn3)nc2c1
[20]
  IC50: 16.7 µM (active)
[21]
  EC50: 24.6 µM (active)

## N#C[C@H]1[C@@H](c2ccc(C#Cc3ccc(F)cc3)cc2)[C@H](CO)N1C(=O)C1CCCC1
[22]
  AC50: 26.5 µM (active)
[23]
  AC50: 8.42 µM (active)
[24]
  AC50: 33.3 µM (active)
[25]
  AC50: 18.6 µM (active)
[26]
  AC50: 9.19 µM (active)
[27]
  AC50: 34.5 µM (active)
[28]
  AC50: > 70 µM (inactive)
[29]
  AC50: 13.4 µM (active)
[30]
  AC50: > 70 µM (inactive)
[31]
  AC50: 26.2 µM (active)

## Cc1ccc(S(=O)(=O)Nc2ccc3c(c2)C(=O)N([C@H](C)CO)C[C@H](C)[C@@H](CN(C)S(=O)(=O)c2ccc(F)cc2)OCCCC[C@H](C)O3)cc1
[32]
  AC50: 6.87 µM (active)
[27]
  AC50: 9 µM (active)
[33]
  AC50: 7.45 µM (active)
[29]
  AC50: 2.11 µM (active)
[30]
  AC50: 11 µM (active)
[34]
  AC50: 14.8 µM (active)

## CC(C)N1C[C@H](C)[C@@H](CN(C)Cc2ccccc2)Oc2c(NC(=O)c3ccncc3)cccc2C1=O
[35]
  AC50: 0.00035 µM (active)
[36]
  AC50: 0.00035 µM (active)
[37]
  IC50: 0.0026 µM (active)

## O=C1C=C(Nc2cccc(Cl)c2)C(=O)c2ccccc21
[38]
  AC50: 22.3 µM (active)
[39]
  AC50: 23.9 µM (active)
[40]
  AC50: 0.683 µM (active)

## O=C(O)c1cccc(COc2ccc3cc(Br)c(=O)oc3c2)c1
[41]
  IC50: > 100 µM (inactive)
[42]
  IC50: > 100 µM (inactive)

## CSC(=S)N/N=C/c1c[nH]c2ccccc12
[43]
  EC50: > 29.9 µM (inactive)
[44]
  EC50: > 29.9 µM (inactive)
[45]
  IC50: 2.6 µM (active)
[46]
  IC50: 28.1 µM (inactive)
